Experiments:
[1] = in vivo; cited from earlier work
macrophages = conditions: cultured in vitro model; cited from earlier work
Leishmania amazonensis = conditions: cited from earlier work
[2] = tested on: hippocampus cells (nestin-positive cells); assay: Nestin immunostaining of hippocampus cell culture; format: cell-based, Wistar rats; conditions: 10 μM of PD for 24 hours; control EGF and FGF-2 10 ng/ml
Description: The hippocampi of Wistar rats (post natal days one to five) were dissected and mechanically dissociated. Viable cells were plated in four wells of a multi-well culture dish (NUNC Inc.) at a density of 10^6 cells/well containing neurobasal medium without serum or growth factor. After 24 hours, the cells were washed and PD was added to the cells (treated group). Control cells (absent PD) were treated with 10 nanograms per milliliter (ng/ml) of each of EGF and FGF-2 only. Cultures were incubated at 37° C. with 5% CO2 and 95% atmospheric air.
Hippocampus cells were cultured with 10 μM of PD for 24 hours, and the cells were then immunostained for using an anti-nestin antibody. Nestin is an intermediate filament protein expressed in dividing cells during the early stages of development in the central nervous system (CNS), peripheral nervous system (PNS) and in myogenic and other tissues. Without being limited by any particular theory or mechanism of action, it is here envisioned that presence of nestin in hippocampus cells indicates the presence of progenitor stem cells.

[3] = tested on: BrdU-positive cells in the subgranule layer of the hippocampus; assay: BrdU quantification of hippocampal stem cell proliferation, dosing every 7 days for 90 days; format: in vivo, BalbC mice; conditions: 5 mg/kg every 7 days for 90 days
Description: (§1) Adult six to eight week old male BalbC mice were obtained and kept in cages at room temperature, allowed access to food and water ad libidum, and subjected to 12-hour light/darkness cycles. All procedures were conducted in accordance with the guide for laboratory animal care of the Institute of Biological Sciences/Federal University of Pará (ICB/UFPA) Ethics Committee.
(§2) For BrdU analysis, animal subjects were administered BrdU (50 mg/kg) and were euthanized, and then were perfused with saline and 4% paraformaldehyde (PFA). The brain tissues were dissected and fixed at 4° C. in 4% PFA for 12 hours, then cryoprotected in 20% sucrose. The brain tissues were sliced at 40 micrometers (microns, μm) in a cryostat. […]
To further analyze and quantitate hippocampal stem cell proliferation, effect of physalins on this proliferation, and survival of subjects, groups of subjects were administered a dose of 50 mg/kg BrdU intraperitoneally and 5 mg/kg of PD or AE every 7 days for 90 days. […] The total number of BrdU-positive cells in the subgranule layer of the hippocampus was quantified. The number of BrdU-positive cells was calculated by measuring the area (ten micrometers corresponds to two cell bodies) between the hilus and the hippocampal granule layer in each cut by the method of Bastos et al. 2008 J. Ethnopharmacol. […]

[4] = tested on: neural stem cells in the dentate gyrus of the hippocampus; assay: BrdU quantification of hippocampal stem cell proliferation in adult mice; design: species or system BalbC mice; conditions: in vivo and in vitro; summary statement
Description: as §1, §2
To analyze hippocampal stem cell proliferation and effect of physalins on this proliferation, groups of subjects were administered a dose of 50 mg/kg BrdU intraperitoneally and different doses of PD. […] The total number of BrdU-positive cells in the subgranule layer of the hippocampus was quantified. The number of BrdU-positive cells was calculated by measuring the area (ten micrometers corresponds to two cell bodies) between the hilus and the hippocampal granule layer in each cut (Bastos et al. 2008 J. Ethnopharmacol. 118(2): pages 246-251). […]
A qualitative analysis of BrdU-labeled cells in the dentate gyrus of adult mice was also performed using fluorescence microscopy. […]

[5] = tested on: TNF-α, interleukin-6 and interleukin-12; conditions: mice treated with lipopolysaccharide; cited from earlier work

| Compound | macrophages activation by lipopolysaccharide and interferon-γ (macrophages) | nitric oxide production (macrophages) | growth of Leishmania amazonensis in macrophages infected with the parasite (Leishmania amazonensis) | also measured |
| --- | --- | --- | --- | --- |
| CNCCC(Oc1ccc(C(F)(F)F)cc1)c1ccccc1 (stereo not shown) [fluoxetine] | – | – | – | reduction of stress-induced neurogenesis [1]: reverses or prevents the reduction of stress-induced neurogenesis |
| C[C@@]12C[C@H]3OC(=O)[C@@H]1CO[C@]14O[C@]5([C@H]2C1=O)[C@@](O)(CC[C@H]1[C@H]4C[C@H]2O[C@]24CC=CC(=O)[C@]14C)C(=O)O[C@@]35C [Physalin F] | inhibit macrophages activation | substantial reduction in nitric oxide production | inhibit the growth | – |
| C[C@@]12C[C@H]3OC(=O)[C@@H]1CO[C@]14O[C@]5([C@H]2C1=O)[C@@](O)(CC[C@H]1[C@H]4C[C@@H](O)[C@@]2(O)CC=CC(=O)[C@]12C)C(=O)O[C@@]35C [Physalin D] | – | – | – | number of nestin-positive cells in the hippocampus cell culture [2]: increased the number of nestin-positive cells; actively dividing cells in adult hippocampus tissues [3]: promotes the increase of actively dividing cells; cell survival [3]: improves cell survival for at least three months; neurogenic activity [4]: neurogenic activity in vivo and in vitro |
| C[C@]12C(=O)C=CCC1C(O)CC1C2CC[C@]2(O)C(=O)O[C@@]3(C)[C@H]4C[C@@]5(C)C6C(=O)[C@]1(OC[C@H]5C(=O)O4)O[C@@]632 (stereo partly shown) [Physalin G] | inhibit macrophages activation | substantial reduction in nitric oxide production | – | – |
| C[C@]12C(=O)C=CCC1=CC[C@@H]1[C@@H]2CC[C@@]2(O)C(=O)O[C@@]3(C)[C@H]4C[C@@]5(C)[C@@H](CO[C@@]16O[C@]23[C@H]5C6=O)C(=O)O4 [Physalin B] | inhibit macrophages activation | substantial reduction in nitric oxide production | inhibit the growth | levels of TNF-α in serum [5]: significantly reduce levels; levels of interleukin-6 in serum [5]: significantly reduce levels; levels of interleukin-12 in serum [5]: significantly reduce levels |

From patent publication US20140187618A1, “COMPOSITIONS, METHODS AND KITS USING FOR INDUCING OR ENHANCING NEUROGENESIS IN CELLS AND TISSUE” (Biocrescentia, LLC, priority 2012, published 2014)
